Experimental data published in US7186830B2, “Tricyclic 2-pyrimidone compounds useful as HIV reverse transcriptase inhibitors” (Bristol-Myers Squibb Company, priority 2002, dated 2007).

| melting point | Compound |
| --- | --- |
| > 280 °C | N#Cc1ccc2c(c1)C(CCC1CC1)(C(F)(F)F)c1nc[nH]c(=O)c1N2 (centres unmarked) [Example 9, 8-Cyano-10-(2-cyclopropylethyl)-10-(trifluoromethyl)-5,10-dihydropyrimido[5,4-b]quinolin-4(3H)-one] |
| 277.3 to 278.1 °C (dec.) | Cc1nc2c(c(=O)[nH]1)Nc1ccc(C#N)cc1C2(COC(C)C)C(F)(F)F (centres unmarked) [Example 7, 8-Cyano-10-(isopropoxymethyl)-2-methyl-10-(trifluoromethyl)-5,10-dihydropyrimido[5,4-b]quinolin-4(3H)-one] |
